Measured values: publication PMC5514153, “Targeting PTPRZ inhibits stem cell-like properties and tumorigenicity in glioblastoma cells” (Scientific Reports, 2017)

Tests used:
[1] = target: T1, hPTPRG (Homo sapiens, UniProt P23470); test: In vitro PTPase assay (DiFMUP), PTPRG; format: biochemical; conditions: 60-min preincubation
T1 construct: The ICRs of PTPRG, PTPRS, and PTPRB and the catalytic domains of PTPN1 and PTPN6; GST (N); made in house; host or cells: Escherichia coli BL21
Procedure: (§1) Figure 4 NAZ2329, an allosteric inhibitor of R5 RPTP subfamily members. (A) Structure of NAZ2329. (B) Effect of preincubation of NAZ2329 on its inhibitory activity against PTPRZ. Recombinant human PTPRZ1 enzyme (the whole intracellular region) was premixed with NAZ2329 for the indicated times and followed by addition of a fluorogenic DiFMUP (non-specific PTP substrate, 6,8-difluoro-4-methylumbiliferyl phosphate) to measure PTP inhibitory activity. (C) Time dependence. The PTPRZ1 enzyme was added to the inhibitor–substrate mixture, and the inhibitory activity was determined at each time point relative to the vehicle control. (D) Reversibility of inhibition. […] The mixture was then 20-fold diluted, and recovered PTP activity was expressed as the relative activity compared with the vehicle-treated enzyme. […] PTPRZ1 enzymes were preincubated with NAZ2329 for 60 min, and the PTP activity was measured using DiFMUP. […]
(§2) Recombinant proteins corresponding to the entire intracellular regions (ICRs) of PTPRZ1, PTPRA, and PTPRM were expressed using a baculovirus-silkworm expression system, and purified as described. The ICRs of PTPRG, PTPRS, and PTPRB and the catalytic domains of PTPN1 and PTPN6 were expressed as glutathione-S-transferase (GST) fusion proteins from each pGEX plasmid in Escherichia coli strain BL21 (ref. [6]). […]

[2] = target: T2, hPTPRA (Homo sapiens, UniProt P18433); test: In vitro PTPase assay (DiFMUP), PTPRA; format: biochemical; conditions: 60-min preincubation
T2 construct: Recombinant proteins corresponding to the entire intracellular regions (ICRs) of PTPRZ1, PTPRA, and PTPRM; made in house; host or cells: baculovirus-silkworm expression system
Procedure: as §1, §2

T1 sequence (P23470 763-1445 limits assumed): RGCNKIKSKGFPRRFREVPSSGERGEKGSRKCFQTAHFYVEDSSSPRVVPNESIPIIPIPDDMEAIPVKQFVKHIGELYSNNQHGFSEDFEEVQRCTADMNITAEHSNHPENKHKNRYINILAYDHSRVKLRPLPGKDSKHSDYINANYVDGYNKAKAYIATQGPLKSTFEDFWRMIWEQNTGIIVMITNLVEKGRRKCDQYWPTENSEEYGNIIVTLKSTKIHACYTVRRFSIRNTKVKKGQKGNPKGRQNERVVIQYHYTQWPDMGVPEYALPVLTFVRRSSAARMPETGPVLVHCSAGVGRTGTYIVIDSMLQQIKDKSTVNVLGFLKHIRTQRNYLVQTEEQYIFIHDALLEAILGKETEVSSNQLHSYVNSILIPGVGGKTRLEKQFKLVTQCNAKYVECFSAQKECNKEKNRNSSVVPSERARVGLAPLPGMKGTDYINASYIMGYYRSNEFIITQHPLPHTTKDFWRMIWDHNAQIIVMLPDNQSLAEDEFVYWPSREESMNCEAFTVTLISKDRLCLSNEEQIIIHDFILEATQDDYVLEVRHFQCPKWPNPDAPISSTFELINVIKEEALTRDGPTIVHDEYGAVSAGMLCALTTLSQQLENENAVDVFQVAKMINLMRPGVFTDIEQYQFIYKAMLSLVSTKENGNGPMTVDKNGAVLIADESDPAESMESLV

## CCOc1ccc(C(F)(F)F)cc1CSc1ccsc1C(=O)NS(=O)(=O)c1ccccc1 [NAZ2329]
[1]
  IC50: 4.8 µM
[2]
  IC50: 35.7 µM
